The values below are quoted from earlier work in patent US20120294937A1, “NEW PHARMACEUTICAL DOSAGE FORM FOR THE TREATMENT OF GASTRIC ACID-RELATED DISORDERS” (NOVARTIS AG, priority 2009, published 2012).

For the data set, the system named is stomach acid pH.

The structures appear in SMILES notation.

Regarding `NC(N)=Nc1nc(CSCCC(N)=NS(N)(=O)=O)cs1` [famotidine], under “Day 1, clinical setting”, the “time stomach acid controlled at pH>4” value is 54 % of the day. The “percentage of time controlling stomach acid” value (Day 8, steady state for omeprazole reached, clinical setting) is recorded as 48 % of the day.
